# *1 amine or outer side, *2 acyl side, *3 side chain or, on linkers, in order; H or OH if unused. Where a SMILES comes first, the peptide text is derived from it. The star is where a group is joined. X1 = COc1ccc2c(c1)c(CC(=O)OCCS*)c(C)n2C(=O)c1ccc(Cl)cc1; Pteroyl = Nc1nc2ncc(CNc3ccc(C(=O)*)cc3)nc2c(=O)[nH]1; γGlu = O=C(O)[CH](CCC(=O)[*:2])N[*:1]
# Tests used:
# [1] = test system: adjuvant-induced arthritis; assay: Adjuvant-induced arthritis in rats, paw swelling; assay type: in vivo, rat
# Protocol: Arthritis was induced in 150-200 g female Lewis rats (Harlan, Indianapolis, Ind.), n=2-5/dose group. Briefly, 0.5 mg of heat-killed […] butericum, suspended in mineral oil (5 mg/ml), was injected on day 0 into the left hind foot of rats following anesthesia with ketamine and xylazine. All treated animals developed arthritis, as evidenced by dramatic swelling in the injected paw, progressive swelling in all noninjected limbs due to the systemic progression of arthritis, and radiographic analysis of affected limbs. All rats were maintained on a folate-deficient diet (DYETS, Inc., Bethlehem, Pa.) for 3 weeks prior to administration of therapeutic agents in order to lower serum folate levels to physiologically relevant concentrations. Control rats were also maintained on a folate-deficient diet but were not induced to develop arthritis.
# The protocol described in Example 32 for arthritis induction was followed. The efficacy of folate-flumethasone (50 nmoles/kg/day) and folate-indomethacin (100 or 250 nmoles/kg/day) against adjuvant-induced arthritis in rats was investigated. Rats were injected intraperitoneally with either saline (control rats) or folate-flumethasone (50 nmoles/kg/day) or folate-indomethacin (100 or 250 nmoles/kg/day) starting at day 4. The sudden increase in swelling of the adjuvant-injected foot is due to influx of neutrophils which have no folate receptors. […]
# [2] = test system: folate receptors on white blood cells from dogs; assay: 3H-folic acid binding to white blood cells from dogs; set-up: species or system dog; details: with/without 100-fold excess folic acid, FIG. 4
# Protocol: (§1) All binding experiments were conducted on ice or in a 4° C. cold room unless indicated otherwise. Folate conjugate and ^3H-folic acid binding studies were performed by incubating cells with a 100 nM concentration of the indicated folate dye conjugate for 45 minutes. […] An acidic wash to strip cell-surface bound folate conjugates was performed on indicated samples by washing the cell sample with a 150 mM NaCl solution adjusted to pH 3.5 with acetic acid. All antibody labeling was optimized by titration. Optimal labeling was most often achieved with a 1/1000-1/10,000 dilution of the manufacture's stock antibody solution. After cells were labeled with folate dye conjugates and/or antibodies, the samples were washed twice with PBS to remove non-specific binding. Analysis of folate conjugate binding and/or antibody binding was analyzed by confocal microscopy or by flow cytometry (FCS Calibur, BD, Franklin Lakes, N.J.). After washing ^3H-folic acid samples to remove non-specific binding, cells were dissolved in 0.25M NaOH and radioactivity was counted on a scintillation counter.
# [3] = molecular target: T1, folate receptors on white blood cells from mice (Mus musculus, UniProt Q05685); assay: 3H-folic acid binding to white blood cells from mice; details: with/without 100-fold excess folic acid, FIG. 4
# T1 construct: endogenous in cells; host or cells: mouse white blood cells
# T1 sequence (Q05685 21-227): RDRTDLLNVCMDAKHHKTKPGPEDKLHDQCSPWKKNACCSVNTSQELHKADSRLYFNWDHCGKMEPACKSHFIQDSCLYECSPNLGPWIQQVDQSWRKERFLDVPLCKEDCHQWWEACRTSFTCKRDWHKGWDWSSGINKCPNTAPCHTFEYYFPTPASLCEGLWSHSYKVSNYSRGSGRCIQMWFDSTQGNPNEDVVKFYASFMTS
# Protocol: as §1
# [4] = molecular target: T2, folate receptors on human peripheral blood monocytes (Homo sapiens, UniProt P14207); assay: Folate dye conjugate binding to human peripheral blood monocytes, flow cytometry; details: for percentage of human peripheral blood monocytes bound: CD11b+ monocytes, FIG. 2; for binding to human peripheral blood monocytes: FIG. 1
# T2 construct: endogenous in cells; host or cells: human peripheral blood monocytes (PBMC isolated by Ficoll-Paque)
# T2 sequence (P14207 17-230): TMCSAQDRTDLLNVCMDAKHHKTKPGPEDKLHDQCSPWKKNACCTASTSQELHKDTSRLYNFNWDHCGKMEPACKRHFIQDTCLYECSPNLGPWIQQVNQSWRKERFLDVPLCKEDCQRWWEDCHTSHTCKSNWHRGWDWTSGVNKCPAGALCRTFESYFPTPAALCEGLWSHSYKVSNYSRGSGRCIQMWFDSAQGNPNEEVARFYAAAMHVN
# Protocol: An 8-10 ml sample of whole blood was collected in EDTA anticoagulant tubes. PBMCs were isolated from the blood samples using Ficoll-Paque Plus (Amersham Biosciences, Piscataway, N.J.) and by following the manufacture's provided protocol. Briefly, the blood sample was diluted 50:50 with a balanced salt solution (described below). 8 mL of Ficoll-Paque Plus was added to a 50 ml conical centrifuge tube. The diluted blood sample (approximately 16-20 ml) was layered on top of the Ficoll gradient. The sample was centrifuged at 400×g for 30 minutes at room temperature. Following centrifugation, the plasma layer (top clear layer) was removed using a pipette leaving the lymphocyte/monocyte layer undisturbed. The hazy cell layer immediately below the plasma layer was removed, being careful to remove the entire cell interface but a minimum amount of the Ficoll layer. The isolated cells were put into a sterile 50 ml conical centrifuge tube and diluted 3-fold (vol/vol) using the balanced salt solution. The resulting cell solution was gently mixed and centrifuged at 100×g for 10 minutes at room temperature to pellet the cells. The supernatant was removed and the cells were resuspended in folate deficient RPMI 1640 medium supplemented with 10% heat-inactivated FBS, penicillin (100 IU/ml) and streptomycin (100 μg/ml). Cells were seeded in microcentrifuge tubes or microscopy chambers as dictated by the experiment.
# as §1
# [5] = test system: folate receptors on peripheral blood monocytes of dogs; assay: Folate dye conjugate binding to peripheral blood monocytes from dogs, flow cytometry; set-up: species or system dog; details: with/without 100-fold excess folic acid, FIG. 5, FIG. 6
# Protocol: (§2) An 8-10 ml sample of whole blood was collected in EDTA anticoagulant tubes. PBMCs were isolated from the blood samples using Ficoll-Paque Plus (Amersham Biosciences, Piscataway, N.J.) and by following the manufacture's provided protocol. Briefly, the blood sample was diluted 50:50 with a balanced salt solution (described below). 8 mL of Ficoll-Paque Plus was added to a 50 ml conical centrifuge tube. The diluted blood sample (approximately 16-20 ml) was layered on top of the Ficoll gradient. The sample was centrifuged at 400×g for 30 minutes at room temperature. Following centrifugation, the plasma layer (top clear layer) was removed using a pipette leaving the lymphocyte/monocyte layer undisturbed. The hazy cell layer immediately below the plasma layer was removed, being careful to remove the entire cell interface but a minimum amount of the Ficoll layer. […]
# (§3) All binding experiments were conducted on ice or in a 4° C. cold room unless indicated otherwise. […] Analysis of folate conjugate binding and/or antibody binding was analyzed by confocal microscopy or by flow cytometry (FCS Calibur, BD, Franklin Lakes, N.J.). After washing ^3H-folic acid samples to remove non-specific binding, cells were dissolved in 0.25M NaOH and radioactivity was counted on a scintillation counter.
# [6] = test system: folate receptors on peripheral blood monocytes of horses; assay: Folate-FITC binding to peripheral blood monocytes from horses, flow cytometry; set-up: species or system horse; details: with/without 100-fold excess folic acid, FIG. 5
# Protocol: as §2, §3
# [7] = absence of unlabeled folic acid
# [8] = presence of a 100-fold excess of unlabeled folic acid
compound,measurement,setting,value
CC1CC2C3CC(F)C4=CC(=O)C=CC4(C)C3(F)C(O)CC2(C)C1(O)C(=O)COC(=O)OCCSSCC(NC(=O)CCC(NC(=O)c1ccc(NCc2cnc3nc(N)[nH]c(=O)c3n2)cc1)C(=O)O)C(=O)O (stereo not drawn) [folate-flumethasone],effect on paw swelling (left foot dimensions) after about 7 days,"[1]; 50 nmoles/kg/day intraperitoneally starting at day 4, FIG. 9",potent therapeutic effects
Nc1nc2ncc(CNc3ccc(C(=O)N[C@@H](CCC(=O)O)C(=O)O)cc3)nc2c(=O)[nH]1 [^3H-Folic acid],folate receptor detection on white blood cells,[2],detectable
same,folate receptor detection on white blood cells,[3],detectable
Nc1nc2ncc(CNc3ccc(C(=O)NC(CCC(=O)NCCNC(=S)Nc4ccc(C(=O)O)c(-c5c6ccc(=O)cc-6oc6cc(O)ccc56)c4)C(=O)O)cc3)nc2c(=O)[nH]1 (stereo not drawn) [folate-FITC],percentage of human peripheral blood monocytes bound,[4]; [7],45.9%
same,percentage of human peripheral blood monocytes bound,[4]; [8],2%
same,binding to human peripheral blood monocytes,[4]; [7],bound
same,folate receptor detection on human peripheral blood monocytes,"[4]; healthy humans and patients with rheumatoid arthritis, osteoarthritis, fibromyalgia, FIG. 8",detectable
same,folate receptor detection on human peripheral blood monocytes,"[4]; patients with rheumatoid arthritis over the course of therapy, FIG. 10",detectable
same,binding to human peripheral blood monocytes,[4]; [8],competed
same,folate receptor detection on peripheral blood monocytes,[5],detectable
same,folate receptor detection on peripheral blood monocytes,[6],detectable
COc1ccc2c(c1)c(CC(=O)OCCSSCC(NC(=O)C(CC(=O)O)NC(=O)C(CC(=O)O)NC(=O)C(CCCNC(=N)N)NC(=O)C(CC(=O)O)NC(=O)CCC(NC(=O)c1ccc(NCc3cnc4nc(N)[nH]c(=O)c4n3)cc1)C(=O)O)C(=O)O)c(C)n2C(=O)c1ccc(Cl)cc1 (stereo not drawn) [folate-indomethacin] ({Pteroyl-γGlu}-DRDDC(X1)-OH; configuration not given here),effect on paw swelling (left foot dimensions) after about 7 days,"[1]; 100 or 250 nmoles/kg/day intraperitoneally starting at day 4, FIG. 9",potent therapeutic effects
